According to publication PMC10005075, “Study on Absorption, Distribution and Excretion of a New Candidate Compound XYY-CP1106 against Alzheimer’s Disease in Rats by LC-MS/MS” (Molecules, 2023):
Entries after “also recorded” stand apart in the source; their conditions may differ. Like-named read-outs stand apart in the source and are kept apart here.

Experiments:
[1] = Plasma pharmacokinetic study after oral and tail vein administration; assay type: in vivo, Sprague-Dawley (SD) rats; parameters: clearance: unit not given here; conditions: rats; for AUC(0-t): read-out: AUC0–24
Experimental: Non-compartmental calculations were performed using the PK Solver plug-in (China Pharmaceutical University, Nanjing, China) to estimate the main pharmacokinetic parameters. All values were expressed as the mean ± standard deviation.
Amounts of 100 μL plasma, 100 μL IS working solution (1000 ng/mL), 100 μL aqueous solution containing 0.2% formic acid and 700 μL ice methanol for protein precipitation were successively added into the 1.5 mL centrifuge tube, and it was vortexed for 30 s. Then, it was centrifuged at 13,000 rpm for 10 min at 4 °C, and the upper clarifying solution was extracted and placed in a new 1.5 mL tube and was centrifuged again under the same conditions. Five microliters of the sample were measured and injected into the LC-MS/MS system for analysis.
For oral administration, six SD rats were fed with freely available food and water and fasted with free access to water for 12 h before drug administration. The rats in each group were weighed and recorded; then, the oral dose was 15 mg/kg. The average weight of rats was 200 ± 30 g. At 0.083, 0.25, 0.5, 0.75, 1, 2, 4, 6, 8, 12 and 24 h after oral administration, 0.3 mL of blood samples were collected from the suborbital vein and put into a 1.5 mL heparin sodium tube. The collected plasma sample was centrifuged at 4 °C for 10 min at 3500 revolutions, and 100 μL of supernatant was taken and stored at −20 °C for future use.
For tail vein injection, six SD rats were weighed and recorded; then, XYY-CP1106 (0.384 mg/mL, 1.92 mg/kg) filtered by a 0.22 µm filter membrane was administered via tail vein injection. An amount of 0.3 mL of blood samples were collected from the suborbital vein into heparin sodium tubes at 0.083, 0.25, 0.5, 0.75, 1, 2, 4, 6, 8, 12 and 24 h after caudal intravenous administration. The collected plasma samples were treated in the same way as oral administration.
The oral absolute bioavailability (F) in rats was calculated according to the following equation:F = (AUCoral(0–∞) × Doseiv)/(AUCiv(0–∞) × Doseoral) × 100%,(1)

[2] = Tissue distribution study after oral administration; assay type: in vivo, Sprague-Dawley (SD) rats; conditions: rats, oral 15 mg/kg
Experimental: The tissue sample was weighed and cut into pieces. Normal saline was added to brain tissue at the ration of 1:1 (g: mL) and other tissues at the ration of 1:3 (g: mL). The tissue homogenate was symmetrically placed in a tissue homogenizer to obtain tissue homogenate.
Amount of 0.5 mL of tissue homogenate and 1.5 mL of acetonitrile were added into a 5 mL centrifuge tube for protein precipitation by vortex, and 1 mL of vortex solution was added into a 1.5 mL centrifuge tube and centrifuged at 13,000 revolutions at for 10 min 4 °C. Then, 900 μL supernatant and 100 μL IS working solution were added into a 1.5 mL centrifuge tube to vortex for 30 s. It was centrifuged twice under the same conditions; then, the supernatant (5 μL) was injected into the LC-MS/MS system.
Thirty SD rats were randomly divided into 5 groups (n = 6), fed with freely available food and water and fasted with free access to water for 12 h before drug administration. All rats were weighed and recorded. The 5 groups of rats were given a single oral dose (15 mg/kg) of XYY-CP1106 (1.0 mg/mL) and sacrificed with cervical dislocation at 0.25, 1, 2, 4 and 8 h, respectively. The heart, liver, spleen, lungs, kidneys and brain of the rats were quickly removed, and the blood was carefully rinsed off with physiological saline (0.9%). The normal saline on the surface of all tissue samples was dried with filter paper then stored in a refrigerator at −80 °C.

[3] = Excretory study (urine and feces) after oral administration; assay type: in vivo; conditions: rats
Experimental: After the collected feces were dried at room temperature, a pestle and mortar were used to uniformly crush the feces collected at each time slot. Then, 0.2 g of ground feces were accurately weighed into a 5.0 mL centrifuge tube, 4 mL of methanol solution was added and then it was put into the ultrasonic instrument for ultrasonic extraction for 4 h. Then, 100 μL of feces samples were added into a 1.5 mL centrifuge tube. Next, it was treated the same as the plasma samples.
Urine samples were collected and processed directly. An aliquot of 100 µL of urine sample was taken and processed in the same manner as the plasma samples.
Ten rats were fed with freely available food and water and fasted with free access to water for 12 h before drug administration. They were given a single dose of XYY-CP1106 (15 mg/kg, 1.0 mg/mL) and then put into metabolic cages. Feces and urine were collected at 0–4, 4–8, 8–12, 12–24, 24–36, 36–48, 48–60, 60–72, 72–84 and 84–96 time slots, respectively. The feces collected at each time slot were air-dried to record their weight and stored in a refrigerator at −20 °C before use. The urine volume was recorded at each time slot and stored in a refrigerator at −20 °C before use.

[4] = Solubility in water; assay type: physicochemical
Experimental: A certain amount of XYY-CP1106 was weighed and dissolved completely in methanol. β-cyclodextrin aqueous solution was added to make it 50% methanol and 30% β-cyclodextrin solution. Then, it was placed in ultrasound for 4 h under an ultrasonic bath after vortex. Next, it was freeze-dried for 2 days; then, it was redissolved in PBS solution to the final concentration of 1.0 mg/mL.

[5] = Stability in plasma, tissues, feces and urine under storage conditions; parameters: species or system rat; conditions: automatic sampler 24 h; three freeze–thaw cycles −20 °C to room temperature; −20 °C for 30 days
Experimental: The stability of XYY-CP1106 standard in plasma, tissues, feces and urine biological samples under different storage conditions was analyzed, including the stability of samples stored at room temperature for 24 h in an automatic sampler, the freeze–thaw stability after three cycles (−20 °C to room temperature was defined as a cycle), and −20 °C for the last 30 days. When the deviation from the standard value was within 15% (low concentration was within 20%), the sample was considered stable. The concentration of standard substance in plasma was 10 and 160 ng/mL. The standard concentration in tissues, feces and urine was 10 and 800 ng/mL.

[6] = parameters: method as in PMID 31325784; conditions: chelating ability for Fe^3+; cited from earlier work
[7] = test system: MAO-B; parameters: method as in PMID 31325784; conditions: cited from earlier work
[8] = test system: scopolamine-induced AD mouse model; parameters: method as in PMID 31325784; conditions: scopolamine-induced AD mice, intraperitoneal injection 10 mg/kg; cited from earlier work
[9] = Sprague-Dawley, rat, plasma, iv, I.V (tail vein) 1.92 mg/kg, n = 6
[10] = Sprague-Dawley, rat, plasma, po, P.O 15 mg/kg, n = 6

Tmax ([1]; Sprague-Dawley, rat, plasma, 15 mg/kg, oral administration, read-out: time to maximum plasma concentration (converted)): 0.75 h | AUC(0-inf) [1, 9]: 599 ± 31.8 ng·h/mL | Cmax [1, 9]: 691 ± 120 ng/mL | clearance [1, 9]: 0.0268 | half-life [1, 9]: 3.5 ± 2.24 h | AUC(0-t) [1, 9]: 540 ± 43.7 ng·h/mL | Tmax ([1]; Sprague-Dawley, rat, plasma, iv, I.V (tail vein) 1.92 mg/kg, n = 6, read-out: Tmax): 0.083 h | half-life ([1]; Sprague-Dawley, rat, plasma, oral, P.O 15 mg/kg, n = 6): 8.26 to 10.1 h | Tmax ([1]; Sprague-Dawley, rat, plasma, oral, P.O 15 mg/kg, n = 6, read-out: Tmax): 0.57 to 0.93 h | bioavailability ([1]; Sprague-Dawley, rat, plasma, po, P.O 15 mg/kg vs I.V 1.92 mg/kg, from AUC0–∞, read-out: absolute oral bioavailability (F)): 10.7 ± 1.72% | AUC(0-inf) [1, 10]: 503 ± 77.7 ng·h/mL | Cmax [1, 10]: 153 ± 15.9 ng/mL | half-life [1, 10]: 9.16 ± 0.9 h | AUC(0-t) [1, 10]: 428 ± 66.1 ng·h/mL | V ([1]; I.V (tail vein) 1.92 mg/kg, n = 6): 0.00403 ± 0.0018 L/kg | V ([1]; P.O 15 mg/kg, n = 6): 0.4017 ± 0.06959 L/kg | concentration at 2 h ([2]; Sprague-Dawley, rat, brain, 2 h after administration): 501 ± 260 ng/g | time of maximum excretion rate in feces ([3]; 15 mg/kg by gavage): 8 to 12 h | time of maximum excretion rate in urine ([3]; 15 mg/kg by gavage): 4 to 12 h | excretion through urine, % of the dose ([3]; 15 mg/kg by gavage, within 24 h): 0.01 ± 0.00% | excretion through feces, % of the dose ([3]; 15 mg/kg by gavage, within 72 h): 31.14 ± 0.05% | average cumulative excretion through feces ([3]; oral 15 mg/kg, prototype drug): 0.94 ± 0.14 mg | stability in biological matrices [5]: stable
SMILES: Cc1c(O)c(=O)ccn1Cc1cc2ccc(OCc3cccc(F)c3)cc2oc1=O [XYY-CP1106]
blood–brain barrier penetration ([2]; detected in brain tissue, 15 mg/kg): could pass through the blood–brain barrier; also recorded: could penetrate the blood–brain barrier; also recorded: penetrating the BBB | main tissues of distribution ([2]; heart, liver, spleen, lung, kidney, brain, 0.25-8 h): mainly distributed in the liver and kidneys | water solubility [4]: low water solubility; also recorded: almost insoluble in water | pFe^3+ [6]: 18.04 | IC50 [7]: 14.7 nM | effect on behavioral and cognitive impairment (water maze) [8]: could significantly alleviate the behavioral and cognitive impairment of mice
